Calls of active or inactive are those of the source. The rule behind the calls is not given here. Some results are limits rather than exact numbers.

The record followed here is PubChem BioAssay AID551 (University of Pittsburgh Molecular Library Screening Center, 2006).

Chain of Dual specificity protein phosphatase 1 (Homo sapiens) (P28562 whole entry, looked up): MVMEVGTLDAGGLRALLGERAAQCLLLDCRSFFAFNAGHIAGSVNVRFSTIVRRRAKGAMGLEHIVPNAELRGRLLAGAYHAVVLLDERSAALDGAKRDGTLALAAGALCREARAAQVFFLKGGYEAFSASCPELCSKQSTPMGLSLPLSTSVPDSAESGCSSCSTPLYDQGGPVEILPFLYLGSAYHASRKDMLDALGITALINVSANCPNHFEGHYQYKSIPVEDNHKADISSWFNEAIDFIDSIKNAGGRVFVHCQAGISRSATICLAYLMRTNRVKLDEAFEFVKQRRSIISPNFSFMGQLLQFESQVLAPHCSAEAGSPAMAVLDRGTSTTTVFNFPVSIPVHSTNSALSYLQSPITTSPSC

The test concerns the target Dual specificity protein phosphatase 1 (Homo sapiens) (UniProt P28562). Nature of the test: MKP-1 phosphatase inhibitor potency, dose response, biochemical, in vitro, confirmation (AID 551). Particulars: recombinant MKP-1 phosphatase, fluorescence substrate.
The term IC50 denotes the concentration at which inhibition is half-maximal. As for `CCSCCOC(=O)C1=C(C)NC2=C(C(=O)CCC2)C1c1coc2ccccc2c1=O` (centres undefined), the IC50 is > 50 µM (inactive).

For the compound `Oc1ccc2ccccc2c1C=NC12CN3CCN(CN(C3)C1)C2`, the IC50 is > 50 µM (inactive).

`COC(=O)C1=C(C)NC2=C(C(=O)c3ccccc32)C1c1ccc(-c2ccc(C(=O)O)cc2)o1` (centres undefined): the IC50 is > 50 µM (inactive).

As for `N#C/C(=C(/O)CSc1nnc(Cc2cccs2)n1C1CCCCC1)c1nc2ccccc2[nH]1`, the IC50 was > 50 µM (inactive).

`CCOC(=O)c1ccc(NC2c3ncccc3C(=O)N2Cc2ccc(F)cc2)cc1` (centres undefined): the IC50 is > 50 µM (inactive).

With `O=C1c2ccccc2-c2onc3ccc(NCCCn4ccnc4)c1c23`, the IC50 is 27.8 µM.

With `Cc1cc(C)n2c(SCC(=O)N3CCN(S(=O)(=O)c4ccc(Cl)cc4)CC3)nnc2n1`, the IC50 is 50 µM.

With `O=C1C(C2=C(O)c3ccccc3C2=O)=Nc2ccccc21`, the IC50 is > 50 µM (inactive).

Take `O=C1c2cccnc2C(Nc2ccc(S(=O)(=O)N3CCCCCC3)cc2)N1Cc1ccccc1` (centres undefined): the IC50 is > 50 µM (inactive).
